Drawing on BindingDB's records for doi:10.1016/j.bmcl.2010.11.060 (Msd, 2010), this text covers IC50 for four molecules.

pIC50: −log10 of the molar value. A value given as a limit tells only on which side of the number the result lay.

A short description of this assay: Inhibition of MCP1-mediated human THP cell migration.

Usually pIC50 stands for the negative decadic logarithm of the IC50, by convention in mol/L. Lower therefore signals a high IC50. Take `O=c1[nH]ccc2c(S(=O)(=O)N3CCCNCC3)cccc12`: the negative logarithm of the IC50 (pIC50) was 5.16. Under `Nc1nccc2cc(CNCCc3ccccc3)ccc12` stands under 4.50; under `C[C@@H](N)[C@H]1CC[C@H](C(=O)Nc2ccncc2)CC1` [4-[(1R)-1-aminoethyl]-N-(pyridin-4-yl)cyclohexane-1-carboxamide], 5.58; under `O=S(=O)(c1cccc2cnccc12)N1CCCNCC1` [AT877], 5.16.
